Reference: patent US9012655B2, “Antimicrobial/adjuvant compounds and methods” (Denouamed, Inc., priority 2011, dated 2015)
≈ marks a conversion by molar mass, not a printed value.

Experiments:
Assay in all cases: MIC panel of challenge pathogens (CLSI)
Assay type in all cases: cell-based
[1] = system: Staphylococcus aureus AUR59 7005; conditions: AUR597005, Staphylococcus aureus AUR59 7005
Experimental: (§1) The inocula for each bacterial strain were prepared by picking 5-10 distinct colonies from the culture plates and suspending them in the appropriate broth as per Clinical and Laboratory Standards Institute (CLSI) guidelines M07-A8, M24-A or M11-A7 as appropriate. The inoculum was resuspended by vigorous shaking on a vortex mixer for 15 s. The turbidity was then adjusted to McFarland standard 0.5 ([…]). The inoculum was further diluted in the appropriate media for MIC tests to give a final inoculum in each well of 2-8×10^5 CFU/ml. MICs were tested in the appropriate broth in accordance with the appropriate CLSI guidelines.
(§2) A stock solution of each compound was prepared at a concentration of 1.28 g/L in DMSO. The stock was further diluted in the appropriate media to give a top starting concentration of 128 mg/L in the assay. 100 μL of the appropriate media, as per CLSI guidelines, was dispensed into each well in columns 2-12. 200 μL of the each compound solution (at 256 mg/L) was dispensed into each well in column 1. 100 μL aliquots were pipetted from column 1 wells and dispensed into column 2 with a multichannel pipette (±2% coefficient of variation) thus diluting two-fold. 100 μL samples were then pipetted from column 2 wells and dispensed into column 3. The process was repeated through to column 10. The final 100 μL of diluted drug from column 10 was then discarded. Row 11 acted as a positive control (no compound, but organisms added), Row 12 acted as a negative control (no compound, and no organisms added).
(§3) 100 μL of the appropriate inoculum suspension in the appropriate media, as per CLSI guidelines, was added to the appropriate wells. […] All plates were incubated in the dark under aerobic or anaerobic conditions at 30-37° C. for 24-48 hours, according to the appropriate CLSI guideline. Plates were read visually 24-48 hours post inoculation. Endpoints of 100% inhibition were determined (CLSI interpretation endpoints following visual examination).
(§4) MIC50, MIC80, and 100% inhibition results are reported below in μg/mL in the following Tables, indicating each compound tested against a given species and strain: […]

[2] = system: Staphylococcus aureus AUR60 7005; conditions: AUR607005, Staphylococcus aureus AUR60 7005
Experimental: as §1, §2, §3, §4

[3] = system: Staphylococcus aureus NRS1 (ATCC700699); conditions: Staphylococcus aureus NRS1 (ATCC700699)
Experimental: as §1, §2, §3, §4

[4] = system: Staphylococcus aureus NRS384; conditions: Staphylococcus aureus NRS384
Experimental: as §1, §2, §3, §4

[5] = system: Enterococcus faecalis ATCC51299; conditions: Enterococcus faecalis ATCC51299
Experimental: as §1, §2, §3, §4

[6] = system: Staphylococcus aureus AUR58 7005; conditions: AUR587005, Staphylococcus aureus AUR58 7005
Experimental: as §1, §2, §3, §4

[7] = system: Staphylococcus aureus EUP MRSA002; conditions: EUPMRSA002, Staphylococcus aureus EUP MRSA002
Experimental: as §1, §2, §3, §4

[8] = system: Staphylococcus aureus ATCC43300; conditions: Staphylococcus aureus ATCC43300
Experimental: as §1, §2, §3, §4

[9] = system: Bacillus cereus NCTC6349; conditions: Bacillus cereus NCTC6349
Experimental: as §1, §2, §3, §4

[10] = system: Staphylococcus epidermidis NRS122; conditions: Staphylococcus epidermidis NRS122
Experimental: as §1, §2, §3, §4

[11] = system: Staphylococcus aureus NRS382; conditions: Staphylococcus aureus NRS382
Experimental: as §1, §2, §3, §4

[12] = system: Staphylococcus aureus AUR131 007035; conditions: AUR131007035, Staphylococcus aureus AUR131 007035
Experimental: as §1, §2, §3, §4

[13] = system: Staphylococcus aureus NRS383; conditions: Staphylococcus aureus NRS383
Experimental: as §1, §2, §3, §4

[14] = system: Enterococcus faecalis ATCC29212; conditions: Enterococcus faecalis ATCC29212
Experimental: as §1, §2, §3, §4

[15] = system: Enterococcus faecium ATCC700221; conditions: Enterococcus faecium ATCC700221
Experimental: as §1, §2, §3, §4

[16] = system: Staphylococcus epidermidis NRS7; conditions: Staphylococcus epidermidis NRS7
Experimental: as §1, §2, §3, §4

[17] = system: Staphylococcus aureus EUP SAU040; conditions: EUPSAU040, Staphylococcus aureus EUP SAU040
Experimental: as §1, §2, §3, §4

[18] = system: Staphylococcus aureus NRS2 (ATCC700698); conditions: Staphylococcus aureus NRS2 (ATCC700698)
Experimental: as §1, §2, §3, §4

[19] = system: Staphylococcus aureus EUP MRSA004; conditions: EUPMRSA004, Staphylococcus aureus EUP MRSA004
Experimental: as §1, §2, §3, §4

In the case of `Clc1ccc(-c2cc(-c3nnn[nH]3)sc2-c2ccc(Cl)cc2)cc1` [DNM0487, 5-(4,5-Bis(4-chlorophenyl)thiophen-2-yl)-1H-tetrazole], the MIC ([1]; read-out: 100% inhibition) is reported as 1 µg/mL (≈ 2.68 µM), the MIC50 ([1]; read-out: MIC50 (50%)) is reported as 1 µg/mL (≈ 2.68 µM) and the MIC80 ([1]; read-out: MIC80 (80%)) is reported as 1 µg/mL (≈ 2.68 µM). It also gave an MIC ([2]; read-out: 100% inhibition) of 1 µg/mL (≈ 2.68 µM), an MIC50 ([2]; read-out: MIC50 (50%)) of 1 µg/mL (≈ 2.68 µM) and an MIC80 ([2]; read-out: MIC80 (80%)) of 1 µg/mL (≈ 2.68 µM). It also gave an MIC ([3]; read-out: 100% inhibition) of 0.5 µg/mL (≈ 1.34 µM), an MIC50 ([3]; read-out: MIC50 (50%)) of 0.25 µg/mL (≈ 0.67 µM) and an MIC80 ([3]; read-out: MIC80 (80%)) of 0.5 µg/mL (≈ 1.34 µM). For the same compound, the MIC ([4]; read-out: 100% inhibition) was 1 µg/mL (≈ 2.68 µM), the MIC50 ([4]; read-out: MIC50 (50%)) was 1 µg/mL (≈ 2.68 µM) and the MIC80 ([4]; read-out: MIC80 (80%)) was 1 µg/mL (≈ 2.68 µM). The MIC ([5]; read-out: 100% inhibition) was 2 µg/mL (≈ 5.36 µM), the MIC50 ([5]; read-out: MIC50 (50%)) was 1 µg/mL (≈ 2.68 µM) and the MIC80 ([5]; read-out: MIC80 (80%)) was 2 µg/mL (≈ 5.36 µM). The MIC ([6]; read-out: 100% inhibition) was 1 µg/mL (≈ 2.68 µM), the MIC50 ([6]; read-out: MIC50 (50%)) was 1 µg/mL (≈ 2.68 µM) and the MIC80 ([6]; read-out: MIC80 (80%)) was 1 µg/mL (≈ 2.68 µM). It also gave an MIC ([7]; read-out: 100% inhibition) of 2 µg/mL (≈ 5.36 µM), an MIC50 ([7]; read-out: MIC50 (50%)) of 1 µg/mL (≈ 2.68 µM) and an MIC80 ([7]; read-out: MIC80 (80%)) of 2 µg/mL (≈ 5.36 µM). For the same compound, the MIC ([8]; read-out: 100% inhibition) was 1 µg/mL (≈ 2.68 µM), the MIC50 ([8]; read-out: MIC50 (50%)) was 1 µg/mL (≈ 2.68 µM) and the MIC80 ([8]; read-out: MIC80 (80%)) was 1 µg/mL (≈ 2.68 µM). For the same compound, the MIC ([9]; read-out: 100% inhibition) was 0.5 µg/mL (≈ 1.34 µM), the MIC50 ([9]; read-out: MIC50 (50%)) was 0.5 µg/mL (≈ 1.34 µM) and the MIC80 ([9]; read-out: MIC80 (80%)) was 0.5 µg/mL (≈ 1.34 µM). For the same compound, the MIC ([10]; read-out: 100% inhibition) was 4 µg/mL (≈ 10.7 µM), the MIC50 ([10]; read-out: MIC50 (50%)) was 4 µg/mL (≈ 10.7 µM) and the MIC80 ([10]; read-out: MIC80 (80%)) was 4 µg/mL (≈ 10.7 µM). The MIC ([11]; read-out: 100% inhibition) was 1 µg/mL (≈ 2.68 µM), the MIC50 ([11]; read-out: MIC50 (50%)) was 1 µg/mL (≈ 2.68 µM) and the MIC80 ([11]; read-out: MIC80 (80%)) was 1 µg/mL (≈ 2.68 µM). The MIC ([12]; read-out: 100% inhibition) was 1 µg/mL (≈ 2.68 µM), the MIC50 ([12]; read-out: MIC50 (50%)) was 1 µg/mL (≈ 2.68 µM) and the MIC80 ([12]; read-out: MIC80 (80%)) was 1 µg/mL (≈ 2.68 µM). The MIC ([13]; read-out: 100% inhibition) was 1 µg/mL (≈ 2.68 µM), the MIC50 ([13]; read-out: MIC50 (50%)) was 1 µg/mL (≈ 2.68 µM) and the MIC80 ([13]; read-out: MIC80 (80%)) was 1 µg/mL (≈ 2.68 µM). The MIC ([14]; read-out: 100% inhibition) was 2 µg/mL (≈ 5.36 µM), the MIC50 ([14]; read-out: MIC50 (50%)) was 2 µg/mL (≈ 5.36 µM) and the MIC80 ([14]; read-out: MIC80 (80%)) was 2 µg/mL (≈ 5.36 µM). For the same compound, the MIC ([15]; read-out: 100% inhibition) was 1 µg/mL (≈ 2.68 µM), the MIC50 ([15]; read-out: MIC50 (50%)) was 1 µg/mL (≈ 2.68 µM) and the MIC80 ([15]; read-out: MIC80 (80%)) was 1 µg/mL (≈ 2.68 µM). The MIC ([16]; read-out: 100% inhibition) was 1 µg/mL (≈ 2.68 µM), the MIC50 ([16]; read-out: MIC50 (50%)) was 0.5 µg/mL (≈ 1.34 µM) and the MIC80 ([16]; read-out: MIC80 (80%)) was 1 µg/mL (≈ 2.68 µM). It also gave an MIC ([17]; read-out: 100% inhibition) of 2 µg/mL (≈ 5.36 µM), an MIC50 ([17]; read-out: MIC50 (50%)) of 1 µg/mL (≈ 2.68 µM) and an MIC80 ([17]; read-out: MIC80 (80%)) of 1 µg/mL (≈ 2.68 µM). For the same compound, the MIC ([18]; read-out: 100% inhibition) was 2 µg/mL (≈ 5.36 µM), the MIC50 ([18]; read-out: MIC50 (50%)) was 1 µg/mL (≈ 2.68 µM) and the MIC80 ([18]; read-out: MIC80 (80%)) was 2 µg/mL (≈ 5.36 µM). For the same compound, the MIC ([19]; read-out: 100% inhibition) was 2 µg/mL (≈ 5.36 µM), the MIC50 ([19]; read-out: MIC50 (50%)) was 1 µg/mL (≈ 2.68 µM) and the MIC80 ([19]; read-out: MIC80 (80%)) was 2 µg/mL (≈ 5.36 µM).
